# According to patent US7422867B2, “Methods of identifying compounds that modulate IL-4 receptor mediated IgE synthesis utilizing a CLLD8 protein” (Rigel Pharmaceuticals, Inc., priority 2002, dated 2008):
# Columns and labels:
# [1] = tested on: IL-4 induced germline ε transcription (ε promoter reporter in A5T4 cells); test: Re-infection (DNA transfer) assay in naïve A5T4 reporter cells; functional profile of mutants; assay type: cell-based, human; settings: for Reporter Ratio: screening in the A5T4 reporter line, wild type and mutants
# Method: The ability of peptide CL02A3 wt to inhibit germline ε transcription was confirmed in naïve cells. Briefly, Phoenix cells were transfected with a retroviral vector encoding a BFP-CL02A3 wt peptide fusion as described in WO 99/58663 and WO 97/27213. Naïve A5T4 cells were infected with the resultant virions and grown for 3 days. The infected cells were stimulated with IL-4 (60 U/mL) and, after 3 days, the cells were assessed by FACS for BFP and GFP.
# A collection of CL02A3 mutants was generated by replacing single or double amino acid residues in the sequence of CL02A3 wt with a different amino acid, typically an alanine or glycine, as described in copending application Ser. No. 10/095,659, entitled Methods of Identifying Protein Targets, filed Mar. 8, 2002. The functional profiles for the mutants derived from CL02A3 wt was obtained by constructing and screening for activity in the A5T4 reporter cell line in the manner described above. The activity of each mutant at the germline ε promoter is reflected in the reporter ratio, as described above. The reporter ratios were the functional values that were used to develop the functional profiles.
# TABLE 2 depicts the amino acid sequences (the dual alanine mutations are underlined) of the mutants tested and the measured reporter ratios when screening in the A5T4 reporter line.
# Comparison of the interaction and functional profiles was performed by categorizing the mutants of CL02A3 based on the functional and interaction assays. Based on the reporter ratio, described in panel C of FIG. 4, each mutant was categorized into one of four functional categories: (1) reduction of function (ROF); (2) loss of function (LOF); (3) increase of function (IOF) or (4) functionally neutral (N), as compared to the activity of the wild type peptide, here CL02A3 wt. As mentioned previously, cells expressing a peptide that inhibits germline ε transcription have reporter ratios of ≧1.1. Cells expressing a loss of function mutant have a reporter ratio of […]. […] Functionally neutral mutants have reporter ratios that fall within ±50% of that of the CL02A3 wt peptide. The % increase or decrease in reporter ratio is calculated after subtracting 1.0 from the individual ratios. Using these criteria, peptides CL02A3LG (SEQ ID NO:2), CL02A3TP (SEQ ID NO:4), and CL02A3EQ (SEQ ID NO:5) were designated as IOF mutants, peptide CL02A3LGW (SEQ ID NO:3), CL02A3HH (SEQ ID NO:8), CL02A3PW (SEQ ID NO:9) were designated as ROF mutants, peptides CL02A3HG (SEQ ID NO:6), and CL02A3GC (SEQ ID NO:7) were designated as neutral, and peptide CL02A3AM (SEQ ID NO:10) was designated as a LOF mutant.
# [2] = molecular target: T1, human CLLD8 protein (hCLLD8) (Homo sapiens, UniProt Q96T68, E117G/V473M); test: β-galactosidase yeast two hybrid (YTH) interaction assay; assay type: binding
# T1 construct: expressed in transfected cells; prey cDNA came from a library of the A5T4 (BJAB-derived human B-cell) reporter line
# T1 sequence (Q96T68 1-719 E117G/V473M): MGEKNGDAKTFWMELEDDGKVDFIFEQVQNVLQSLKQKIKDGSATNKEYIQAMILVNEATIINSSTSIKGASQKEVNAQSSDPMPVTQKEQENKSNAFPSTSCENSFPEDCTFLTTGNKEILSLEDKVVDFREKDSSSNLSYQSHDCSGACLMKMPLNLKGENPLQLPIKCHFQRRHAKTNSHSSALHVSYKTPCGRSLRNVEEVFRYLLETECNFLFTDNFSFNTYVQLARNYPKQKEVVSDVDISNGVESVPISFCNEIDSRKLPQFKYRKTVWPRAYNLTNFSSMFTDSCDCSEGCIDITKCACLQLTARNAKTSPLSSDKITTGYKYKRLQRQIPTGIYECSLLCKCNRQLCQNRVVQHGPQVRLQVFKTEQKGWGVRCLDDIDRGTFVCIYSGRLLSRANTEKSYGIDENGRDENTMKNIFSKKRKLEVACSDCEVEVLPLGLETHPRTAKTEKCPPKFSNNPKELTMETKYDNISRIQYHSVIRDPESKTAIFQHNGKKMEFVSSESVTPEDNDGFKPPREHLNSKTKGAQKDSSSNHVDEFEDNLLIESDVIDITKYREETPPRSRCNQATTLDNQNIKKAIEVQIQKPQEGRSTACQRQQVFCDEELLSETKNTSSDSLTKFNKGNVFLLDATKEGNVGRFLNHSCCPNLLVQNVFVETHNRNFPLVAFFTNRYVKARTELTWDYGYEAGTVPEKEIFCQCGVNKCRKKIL
# Method: Potential binding partners for peptide CL02A3 wt were identified in a β-galactosidase yeast two-hybrid (YTH) assay using peptide CL02A3 wt as bait and a cDNA library constructed from the A5T4 reporter cell line as prey. Binding was assessed by β-galactosidase quantification using BetaFluor (Novagen) as a substrate. A negative interaction control (no cDNA fused downstream of the GAL4 activation domain sequence) was also run. A general outline of the YTH assay is illustrated in FIG. 5A. Following clustering, filtering to remove non-specific bait hits (e.g., GFP and BFP), singletons and clusters recognized by 10 or more cDNA baits (based upon historical YTH assays), and prioritization, 64 prey clones were identified as hits.
# Potential targets identified in the YTH assay were reconfirmed as generally outlined in FIG. 6. The cDNA clones identified as hits in the YTH assay were purified and rescreened for interaction with the CL02A3 wt peptide in a YTH assay. The hit clones were also screened in a control assay for interaction with the BFP using a vector (pGBKT7) that contained only the BFP and not the CL02A3 peptide. At this stage, 51 putative target clones remained.
# The interaction of CL02A3 wt peptide and its mutants with the clones identified as potential targets for the peptide CL02A3 wt was then quantified in a β-galactosidase YTH assay. The YTH assay was performed in the manner described above. A general outline of this YTH assay is illustrated in FIG. 5B. For each clone tested, an interaction profile was developed by comparing the β-galactosidase activity of each mutant to that of the wild type peptide, as described above.
# The interaction of these IOF, ROF and LOF mutants with different polypeptides encoded by the putative target clones were quantified using the YTH assay described above. […]
# [3] = tested on: endogenous germline α promoter; test: TAQMAN assay of endogenous germline α promoter transcription in ST486 cells; assay type: cell-based; settings: ST486 cells stimulated with TGF-β 40 ng/ml; average of 3 values
# Method: The assay was similar to that described in the immediately preceding section, except that ST486 cells (ATCC # CRL-1647) engineered to express the tetracycline-regulated transactivator were infected and the infected cells were stimulated with TGF-β (40 ng/ml; Peprotech). The primers and probe, which are specific for the transcription product driven by the ST486 endogenous α promoter, were as follows (the probe was labeled at the 5′-end with Fam and at the 3′-end with Tamra): […]
Sequence,Reporter Ratio [1],binding to human CLLD8 protein in yeast two hybrid interaction assay [2],also measured
AMAAHHGWPWGMEQGCTPLG (peptide encoded by synthetic oligomer) [CL02A3HG],1.5,,
AMHGAAGWPWGMEQGCTPLG (peptide encoded by synthetic oligomer) [CL02A3HH],1.29,,
AMHGHHAAPWGMEQGCTPLG (peptide encoded by synthetic oligomer) [CL02A3GW],,found to bind,
AMHGHHGWAAGMEQGCTPLG (peptide encoded by synthetic oligomer) [CL02A3PW],1.24,,
AMHGHHGWPWGMAAGCTPLG (peptide encoded by synthetic oligomer) [CL02A3EQ],"2.23,",,
AMHGHHGWPWGMEQAATPLG (peptide encoded by synthetic oligomer) [CL02A3GC],1.89,,
AMHGHHGWPWGMEQGCAALG (peptide encoded by synthetic oligomer) [CL02A3TP],1.91,,
AMHGHHGWPWGMEQGCTPAA (peptide encoded by synthetic oligomer) [CL02A3LG],,found to bind,
AMHGHHGWPWGMEQGCTPLG (peptide encoded by synthetic oligomer) [CL02A3wt],,found to bind,endogenous α inhibition ratio [3]: 0.89
RAHGHHGWPWGMEQGCTPLG (peptide encoded by synthetic oligomer) [CL02A3AM],,,"functional category compared to CL02A3 wt, based on reporter ratio ([1]; % change calculated after subtracting 1.0 from the ratios): LOF (Cells expressing a loss of function mutant have a reporter ratio of <1.11)"
